Assay results taken from ChEMBL document CHEMBL4033663, “Design, combinatorial synthesis and biological evaluations of novel 3-amino-1'-((1-aryl-1H-1,2,3-triazol-5-yl)methyl)-2'-oxospiro[benzo[a] pyrano[2,3-c]phenazine-1,3'-indoline]-2-carbonitrile antitumor hybrid molecules” (Eur J Med Chem, 2017).
pIC50: −log10 of the molar value.

Tested on: HUVEC
Assay: Antiproliferative activity against human HUVEC cells after 48 hrs by MTT assay
Format: cell-based
Settings: not given

SMILES | pIC50
N#CC1=C(N)Oc2c(c3nc4ccccc4nc3c3ccccc23)C12C(=O)N(Cc1cnnn1-c1ccc(Cl)cc1)c1ccccc12 (centres undefined) | < 4.30
CCOc1ccccc1-n1nncc1CN1C(=O)C2(C(C#N)=C(N)Oc3c(N)cc4nc5ccccc5nc4c32)c2ccccc21 (centres undefined) | < 4.30
CCc1cccc(CC)c1-n1nncc1CN1C(=O)C2(C(C#N)=C(N)Oc3c(N)cc4nc5ccccc5nc4c32)c2ccccc21 (centres undefined) | < 4.30
Cc1ccc(Cl)cc1-n1nncc1CN1C(=O)C2(C(C#N)=C(N)Oc3c2c2nc4ccccc4nc2c2ccccc32)c2ccccc21 (centres undefined) | < 4.30
N#CC1=C(N)Oc2c(N)cc3nc4ccccc4nc3c2C12C(=O)N(Cc1cnnn1-c1cccc(Br)c1)c1ccccc12 (centres undefined) | < 4.30
N#CC1=C(N)Oc2c(c3nc4ccccc4nc3c3ccccc23)C12C(=O)N(Cc1cnnn1-c1ccccc1Cl)c1ccccc12 (centres undefined) | < 4.30
N#CC1=C(N)Oc2c(N)cc3nc4ccccc4nc3c2C12C(=O)N(Cc1cnnn1-c1ccc([N+](=O)[O-])cc1)c1ccccc12 (centres undefined) | < 4.30
N#CC1=C(N)Oc2c(N)cc3nc4ccccc4nc3c2C12C(=O)N(Cc1cnnn1-c1ccc(Cl)cc1)c1ccccc12 (centres undefined) | < 4.30
N#CC1=C(N)Oc2c(c3nc4ccccc4nc3c3ccccc23)C12C(=O)N(Cc1cnnn1-c1ccc(Cl)c(Cl)c1)c1ccccc12 (centres undefined) | < 4.30
CC[C@@]1(O)C(=O)OCc2c1cc1n(c2=O)Cc2cc3cc(O)ccc3nc2-1 [HYDROXYCAMPTOTHECIN] | 4.74

Tested on: L02
Assay: Antiproliferative activity against human L02 cells after 48 hrs by MTT assay
Format: cell-based
Settings: L02, 48 h

SMILES | pIC50
N#CC1=C(N)Oc2c(c3nc4ccccc4nc3c3ccccc23)C12C(=O)N(Cc1cnnn1-c1ccc(Cl)cc1)c1ccccc12 (centres undefined) | < 4.30
CCOc1ccccc1-n1nncc1CN1C(=O)C2(C(C#N)=C(N)Oc3c(N)cc4nc5ccccc5nc4c32)c2ccccc21 (centres undefined) | < 4.30
CCc1cccc(CC)c1-n1nncc1CN1C(=O)C2(C(C#N)=C(N)Oc3c(N)cc4nc5ccccc5nc4c32)c2ccccc21 (centres undefined) | < 4.30
Cc1ccc(Cl)cc1-n1nncc1CN1C(=O)C2(C(C#N)=C(N)Oc3c2c2nc4ccccc4nc2c2ccccc32)c2ccccc21 (centres undefined) | < 4.30
N#CC1=C(N)Oc2c(N)cc3nc4ccccc4nc3c2C12C(=O)N(Cc1cnnn1-c1cccc(Br)c1)c1ccccc12 (centres undefined) | < 4.30
N#CC1=C(N)Oc2c(c3nc4ccccc4nc3c3ccccc23)C12C(=O)N(Cc1cnnn1-c1ccccc1Cl)c1ccccc12 (centres undefined) | < 4.30
N#CC1=C(N)Oc2c(N)cc3nc4ccccc4nc3c2C12C(=O)N(Cc1cnnn1-c1ccc([N+](=O)[O-])cc1)c1ccccc12 (centres undefined) | < 4.30
N#CC1=C(N)Oc2c(N)cc3nc4ccccc4nc3c2C12C(=O)N(Cc1cnnn1-c1ccc(Cl)cc1)c1ccccc12 (centres undefined) | < 4.30
N#CC1=C(N)Oc2c(c3nc4ccccc4nc3c3ccccc23)C12C(=O)N(Cc1cnnn1-c1ccc(Cl)c(Cl)c1)c1ccccc12 (centres undefined) | < 4.30
CC[C@@]1(O)C(=O)OCc2c1cc1n(c2=O)Cc2cc3cc(O)ccc3nc2-1 [HYDROXYCAMPTOTHECIN] | 4.69

Tested on: HCT-116
Assay: Antiproliferative activity against human HCT116 cells after 48 hrs by MTT assay
Format: functional, cell-based
Settings: HCT-116, 48 h

SMILES | pIC50
N#CC1=C(N)Oc2c(c3nc4ccccc4nc3c3ccccc23)C12C(=O)N(Cc1cnnn1-c1ccc(Cl)cc1)c1ccccc12 (centres undefined) | < 4.30
CCOc1ccccc1-n1nncc1CN1C(=O)C2(C(C#N)=C(N)Oc3c(N)cc4nc5ccccc5nc4c32)c2ccccc21 (centres undefined) | < 4.30
CCc1cccc(CC)c1-n1nncc1CN1C(=O)C2(C(C#N)=C(N)Oc3c(N)cc4nc5ccccc5nc4c32)c2ccccc21 (centres undefined) | 4.42
Cc1ccc(Cl)cc1-n1nncc1CN1C(=O)C2(C(C#N)=C(N)Oc3c2c2nc4ccccc4nc2c2ccccc32)c2ccccc21 (centres undefined) | < 4.30
N#CC1=C(N)Oc2c(N)cc3nc4ccccc4nc3c2C12C(=O)N(Cc1cnnn1-c1cccc(Br)c1)c1ccccc12 (centres undefined) | 4.58
N#CC1=C(N)Oc2c(c3nc4ccccc4nc3c3ccccc23)C12C(=O)N(Cc1cnnn1-c1ccccc1Cl)c1ccccc12 (centres undefined) | < 4.30
N#CC1=C(N)Oc2c(N)cc3nc4ccccc4nc3c2C12C(=O)N(Cc1cnnn1-c1ccc([N+](=O)[O-])cc1)c1ccccc12 (centres undefined) | < 4.30
N#CC1=C(N)Oc2c(N)cc3nc4ccccc4nc3c2C12C(=O)N(Cc1cnnn1-c1ccc(Cl)cc1)c1ccccc12 (centres undefined) | < 4.30
N#CC1=C(N)Oc2c(c3nc4ccccc4nc3c3ccccc23)C12C(=O)N(Cc1cnnn1-c1ccc(Cl)c(Cl)c1)c1ccccc12 (centres undefined) | < 4.30
CC[C@@]1(O)C(=O)OCc2c1cc1n(c2=O)Cc2cc3cc(O)ccc3nc2-1 [HYDROXYCAMPTOTHECIN] | 5.49

Tested on: MCF7
Assay: Antiproliferative activity against human MCF7 cells after 48 hrs by MTT assay
Format: functional, cell-based
Settings: MCF7, 48 h

SMILES | pIC50
N#CC1=C(N)Oc2c(c3nc4ccccc4nc3c3ccccc23)C12C(=O)N(Cc1cnnn1-c1ccc(Cl)cc1)c1ccccc12 (centres undefined) | < 4.30
CCOc1ccccc1-n1nncc1CN1C(=O)C2(C(C#N)=C(N)Oc3c(N)cc4nc5ccccc5nc4c32)c2ccccc21 (centres undefined) | < 4.30
CCc1cccc(CC)c1-n1nncc1CN1C(=O)C2(C(C#N)=C(N)Oc3c(N)cc4nc5ccccc5nc4c32)c2ccccc21 (centres undefined) | < 4.30
Cc1ccc(Cl)cc1-n1nncc1CN1C(=O)C2(C(C#N)=C(N)Oc3c2c2nc4ccccc4nc2c2ccccc32)c2ccccc21 (centres undefined) | < 4.30
N#CC1=C(N)Oc2c(N)cc3nc4ccccc4nc3c2C12C(=O)N(Cc1cnnn1-c1cccc(Br)c1)c1ccccc12 (centres undefined) | < 4.30
N#CC1=C(N)Oc2c(c3nc4ccccc4nc3c3ccccc23)C12C(=O)N(Cc1cnnn1-c1ccccc1Cl)c1ccccc12 (centres undefined) | < 4.30
N#CC1=C(N)Oc2c(N)cc3nc4ccccc4nc3c2C12C(=O)N(Cc1cnnn1-c1ccc([N+](=O)[O-])cc1)c1ccccc12 (centres undefined) | < 4.30
N#CC1=C(N)Oc2c(N)cc3nc4ccccc4nc3c2C12C(=O)N(Cc1cnnn1-c1ccc(Cl)cc1)c1ccccc12 (centres undefined) | < 4.30
N#CC1=C(N)Oc2c(c3nc4ccccc4nc3c3ccccc23)C12C(=O)N(Cc1cnnn1-c1ccc(Cl)c(Cl)c1)c1ccccc12 (centres undefined) | < 4.30
CC[C@@]1(O)C(=O)OCc2c1cc1n(c2=O)Cc2cc3cc(O)ccc3nc2-1 [HYDROXYCAMPTOTHECIN] | 5.55

Tested on: HepG2
Assay: Antiproliferative activity against human HepG2 cells after 48 hrs by MTT assay
Format: functional, cell-based
Settings: HepG2, 48 h

SMILES | pIC50
N#CC1=C(N)Oc2c(c3nc4ccccc4nc3c3ccccc23)C12C(=O)N(Cc1cnnn1-c1ccc(Cl)cc1)c1ccccc12 (centres undefined) | < 4.30
CCOc1ccccc1-n1nncc1CN1C(=O)C2(C(C#N)=C(N)Oc3c(N)cc4nc5ccccc5nc4c32)c2ccccc21 (centres undefined) | 4.52
CCc1cccc(CC)c1-n1nncc1CN1C(=O)C2(C(C#N)=C(N)Oc3c(N)cc4nc5ccccc5nc4c32)c2ccccc21 (centres undefined) | 4.78
Cc1ccc(Cl)cc1-n1nncc1CN1C(=O)C2(C(C#N)=C(N)Oc3c2c2nc4ccccc4nc2c2ccccc32)c2ccccc21 (centres undefined) | < 4.30
N#CC1=C(N)Oc2c(N)cc3nc4ccccc4nc3c2C12C(=O)N(Cc1cnnn1-c1cccc(Br)c1)c1ccccc12 (centres undefined) | < 4.30
N#CC1=C(N)Oc2c(c3nc4ccccc4nc3c3ccccc23)C12C(=O)N(Cc1cnnn1-c1ccccc1Cl)c1ccccc12 (centres undefined) | < 4.30
N#CC1=C(N)Oc2c(N)cc3nc4ccccc4nc3c2C12C(=O)N(Cc1cnnn1-c1ccc([N+](=O)[O-])cc1)c1ccccc12 (centres undefined) | < 4.30
N#CC1=C(N)Oc2c(N)cc3nc4ccccc4nc3c2C12C(=O)N(Cc1cnnn1-c1ccc(Cl)cc1)c1ccccc12 (centres undefined) | < 4.30
N#CC1=C(N)Oc2c(c3nc4ccccc4nc3c3ccccc23)C12C(=O)N(Cc1cnnn1-c1ccc(Cl)c(Cl)c1)c1ccccc12 (centres undefined) | < 4.30
CC[C@@]1(O)C(=O)OCc2c1cc1n(c2=O)Cc2cc3cc(O)ccc3nc2-1 [HYDROXYCAMPTOTHECIN] | 4.99

Tested on: A549
Assay: Antiproliferative activity against human A549 cells after 48 hrs by MTT assay
Format: functional, cell-based
Settings: A549, 48 h

SMILES | pIC50
N#CC1=C(N)Oc2c(c3nc4ccccc4nc3c3ccccc23)C12C(=O)N(Cc1cnnn1-c1ccc(Cl)cc1)c1ccccc12 (centres undefined) | < 4.30
CCOc1ccccc1-n1nncc1CN1C(=O)C2(C(C#N)=C(N)Oc3c(N)cc4nc5ccccc5nc4c32)c2ccccc21 (centres undefined) | < 4.30
CCc1cccc(CC)c1-n1nncc1CN1C(=O)C2(C(C#N)=C(N)Oc3c(N)cc4nc5ccccc5nc4c32)c2ccccc21 (centres undefined) | < 4.30
Cc1ccc(Cl)cc1-n1nncc1CN1C(=O)C2(C(C#N)=C(N)Oc3c2c2nc4ccccc4nc2c2ccccc32)c2ccccc21 (centres undefined) | < 4.30
N#CC1=C(N)Oc2c(N)cc3nc4ccccc4nc3c2C12C(=O)N(Cc1cnnn1-c1cccc(Br)c1)c1ccccc12 (centres undefined) | 4.72
N#CC1=C(N)Oc2c(c3nc4ccccc4nc3c3ccccc23)C12C(=O)N(Cc1cnnn1-c1ccccc1Cl)c1ccccc12 (centres undefined) | 4.37
N#CC1=C(N)Oc2c(N)cc3nc4ccccc4nc3c2C12C(=O)N(Cc1cnnn1-c1ccc([N+](=O)[O-])cc1)c1ccccc12 (centres undefined) | < 4.30
N#CC1=C(N)Oc2c(N)cc3nc4ccccc4nc3c2C12C(=O)N(Cc1cnnn1-c1ccc(Cl)cc1)c1ccccc12 (centres undefined) | < 4.30
N#CC1=C(N)Oc2c(c3nc4ccccc4nc3c3ccccc23)C12C(=O)N(Cc1cnnn1-c1ccc(Cl)c(Cl)c1)c1ccccc12 (centres undefined) | < 4.30
